Test system: Glomerella lacenarium (Colletotrichum lacenarium)
Assay: Fungicidal activity, liquid culture, cucumber preventative (anthracnose)
Assay type: cell-based
Details: 20 ppm in the applied formulation, liquid culture in PDB, inhibition of growth measured photometrically 3 to 4 days after application, compared to untreated control, read-out: disease control
Description: Mycelia fragments or conidia suspensions of a fungus prepared either freshly from liquid cultures of the fungus or from cryogenic storage, are directly mixed into nutrient broth. DMSO solutions of the test compound (max. 10 mg/ml) are diluted with 0.025% Tween20 by a factor of 50 and 10 μl of this solution is pipetted into a microtiter plate (96-well format). The nutrient broth containing the fungal spores/mycelia fragments is then added to give an end concentration of the tested compound. The test plates are incubated in the dark at 24° C. and 96% relative humidity. The inhibition of fungal growth is determined photometrically after 2 to 7 days, depending on the pathosystem, and percent antifungal activity relative to the untreated check is calculated.
Conidia of the fungus from cryogenic storage are directly mixed into nutrient broth (PDB—potato dextrose broth). After placing a (DMSO) solution of test compound into a microtiter plate (96-well format), the nutrient broth containing the fungal spores is added. The test plates are incubated at 24° C. and the inhibition of growth is measured photometrically 3 to 4 days after application.
The following compounds at 20 ppm in the applied formulation give at least 80% disease control in this test when compared to untreated control under the same conditions, which show extensive disease development.

For `CC1CC1C(=O)N(Cc1ccc(-c2noc(C(F)(F)F)n2)s1)C(C)C` (centres unmarked) [Compound 5.34, N-isopropyl-2-methyl-N-[[5-[5-(trifluoromethyl)-1,2,4-oxadiazol-3-yl]-2-thienyl]methyl]cyclopropanecarboxamide], the inhibition of growth at 20 ppm was at least 80%.

Work on `CC(C)S(=O)(=O)N(C)Cc1ccc(-c2noc(C(F)(F)F)n2)s1` [Compound 6.23, N-methyl-N-[[5-[5-(trifluoromethyl)-1,2,4-oxadiazol-3-yl]-2-thienyl]methyl]propane-2-sulfonamide] yielded an inhibition of growth at 20 ppm of at least 80%.

For `CCOC(=O)N(Cc1ccc(-c2noc(C(F)(F)F)n2)s1)C(C)C` [Compound 4.12, ethyl N-isopropyl-N-[[5-[5-(trifluoromethyl)-1,2,4-oxadiazol-3-yl]-2-thienyl]methyl]carbamate], the inhibition of growth at 20 ppm was at least 80%.

`CC(C)N(Cc1ccc(-c2noc(C(F)(F)F)n2)s1)C(=O)CC1CC1` [Compound 5.27, 2-cyclopropyl-N-isopropyl-N-[[5-[5-(trifluoromethyl)-1,2,4-oxadiazol-3-yl]-2-thienyl]methyl]acetamide] showed an inhibition of growth at 20 ppm of at least 80%.

In the case of `O=C(c1ccccc1Cl)N(Cc1ccc(-c2noc(C(F)(F)F)n2)s1)OCC(F)F` [Compound 5.44, 2-chloro-N-(2,2-difluoroethoxy)-N-[[5-(5-(trifluoromethyl)-1,2,4-oxadiazol-3-yl]-2-thienyl]methyl]benzamide], the inhibition of growth at 20 ppm is reported as at least 80%.

Work on `CN(C)C(=O)C(=O)N(Cc1ccc(-c2noc(C(F)(F)F)n2)s1)OCC(F)F` [Compound 6.65, N′-(2,2-difluoroethoxy)-N,N-dimethyl-N′-[[5-[5-(trifluoromethyl)-1,2,4-oxadiazol-3-yl]-2-thienyl]methyl]oxamide] yielded an inhibition of growth at 20 ppm of at least 80%.

With `COC(C)C(=O)N(Cc1ccc(-c2noc(C(F)(F)F)n2)s1)OCC(F)F` (centres unmarked) [Compound 4.21, N-(2,2-difluoroethoxy)-2-methoxy-N-[[5-[5-(trifluoromethyl)-1,2,4-oxadiazol-3-yl]-2-thienyl]methyl]propanamide] the inhibition of growth at 20 ppm was at least 80%.

For `CCN(Cc1ccc(-c2noc(C(F)(F)F)n2)s1)C(=O)c1ccccc1Cl` [Compound 5.8, 2-chloro-N-ethyl-N-[[5-[5-(trifluoromethyl)-1,2,4-oxadiazol-3-yl]-2-thienyl]methyl]benzamide], the inhibition of growth at 20 ppm was at least 80%.

Molecule `CON(Cc1ccc(-c2noc(C(F)(F)F)n2)s1)S(C)(=O)=O` [Compound 1.31, N-methoxy-N-[[5-[5-(trifluoromethyl)-1,2,4-oxadiazol-3-yl]-2-thienyl]methyl]methanesulfonamide] has an inhibition of growth at 20 ppm of at least 80%.

With `CC(C)N(Cc1ccc(-c2noc(C(F)(F)F)n2)s1)C(=O)N1CCCO1` [Compound 5.58, N-isopropyl-N-[[5-[5-(trifluoromethyl)-1,2,4-oxadiazol-3-yl]-2-thienyl]methyl]isoxazolidine-2-carboxamide] the inhibition of growth at 20 ppm was at least 80%.

For `COC(=O)CCS(=O)(=O)N(Cc1ccc(-c2noc(C(F)(F)F)n2)s1)OC` [Compound 1.39, methyl 3-[methoxy-[[5-[5-(trifluoromethyl)-1,2,4-oxadiazol-3-yl]-2-thienyl]methyl]sulfamoyl]propanoate], the inhibition of growth at 20 ppm was at least 80%.

Molecule `CCN(Cc1ccc(-c2noc(C(F)(F)F)n2)s1)S(=O)(=O)c1ccccc1` [Compound 6.15, N-ethyl-N-[[5-[5-(trifluoromethyl)-1,2,4-oxadiazol-3-yl]-2-thienyl]methyl]benzenesulfonamide] has an inhibition of growth at 20 ppm of at least 80%.

In the case of `CON(Cc1ccc(-c2noc(C(F)(F)F)n2)s1)S(=O)(=O)N1CCCC1` [Compound 1.36, N-methoxy-N-[[5-[5-(trifluoromethyl)-1,2,4-oxadiazol-3-yl]-2-thienyl]methyl]pyrrolidine-1-sulfonamide], the inhibition of growth at 20 ppm is reported as at least 80%.

`CC1(C(=O)N(Cc2ccc(-c3noc(C(F)(F)F)n3)s2)OCC(F)F)CC1` [Compound 5.48, N-(2,2-difluoroethoxy)-1-methyl-N-[[5-[5-(trifluoromethyl)-1,2,4-oxadiazol-3-yl]-2-thienyl]methyl]cyclopropanecarboxamide] showed an inhibition of growth at 20 ppm of at least 80%.

With `O=C(c1ccccc1Cl)N(Cc1ccc(-c2noc(C(F)(F)F)n2)s1)C1CC1` [Compound 5.35, 2-chloro-N-cyclopropyl-N-[[5-[5-(trifluoromethyl)-1,2,4-oxadiazol-3-yl]-2-thienyl]methyl]benzamide] the inhibition of growth at 20 ppm was at least 80%.

Molecule `CC(C)N(Cc1ccc(-c2noc(C(F)(F)F)n2)s1)S(=O)(=O)N(C)C` [Compound 6.4, N-(dimethylsulfamoyl)-N-[[5-[5-(trifluoromethyl)-1,2,4-oxadiazol-3-yl]-2-thienyl]methyl]propan-2-amine] has an inhibition of growth at 20 ppm of at least 80%.

Molecule `CCN(Cc1ccc(-c2noc(C(F)(F)F)n2)s1)C(=O)C(=O)C(C)(C)C` [Compound 6.41, N-ethyl-3,3-dimethyl-2-oxo-N-[[5-[5-(trifluoromethyl)-1,2,4-oxadiazol-3-yl]-2-thienyl]methyl]butanamide] has an inhibition of growth at 20 ppm of at least 80%.

Molecule `CC(C)N(Cc1ccc(-c2noc(C(F)(F)F)n2)s1)C(=O)C1(C)CC1` [Compound 5.30, N-isopropyl-1-methyl-N-[[5-[5-(trifluoromethyl)-1,2,4-oxadiazol-3-yl]-2-thienyl]methyl]cyclopropanecarboxamide] has an inhibition of growth at 20 ppm of at least 80%.

Molecule `CON(Cc1ccc(-c2noc(C(F)(F)F)n2)s1)C(=O)n1ccnc1` [Compound 1.3, N-methoxy-N-[[5-[5-(trifluoromethyl)-1,2,4-oxadiazol-3-yl]-2-thienyl]methyl]imidazole-1-carboxamide] has an inhibition of growth at 20 ppm of at least 80%.

Work on `CCCCS(=O)(=O)N(Cc1ccc(-c2noc(C(F)(F)F)n2)s1)C1CC1` [Compound 6.34, N-cyclopropyl-N-[[5-[5-(trifluoromethyl)-1,2,4-oxadiazol-3-yl]-2-thienyl]methyl]butane-1-sulfonamide] yielded an inhibition of growth at 20 ppm of at least 80%.

With `COCCS(=O)(=O)N(Cc1ccc(-c2noc(C(F)(F)F)n2)s1)OC` [Compound 1.40, N,2-dimethoxy-N-[[5-[5-(trifluoromethyl)-1,2,4-oxadiazol-3-yl]-2-thienyl]methyl]ethanesulfonamide] the inhibition of growth at 20 ppm was at least 80%.

`C=CCS(=O)(=O)N(Cc1ccc(-c2noc(C(F)(F)F)n2)s1)OC` [Compound 1.38, N-methoxy-N-[[5-[5-(trifluoromethyl)-1,2,4-oxadiazol-3-yl]-2-thienyl]methyl]prop-2-ene-1-sulfonamide] was tested, and the inhibition of growth at 20 ppm was at least 80%.

For `CC(C)C(=O)N(Cc1ccc(-c2noc(C(F)(F)F)n2)s1)OCC(F)F` [Compound 4.20, N-(2,2-difluoroethoxy)-2-methyl-N-[[5-[5-(trifluoromethyl)-1,2,4-oxadiazol-3-yl]-2-thienyl]methyl]propanamide], the inhibition of growth at 20 ppm was at least 80%.
